Test results reported in the Deep4Chem optical property database.
Blank lines part the entries; values can stand above or below the compound they belong to.

Test: solvent given as SMILES

Structure (SMILES): COc1ccc(C2=C(c3ccc(OC)cc3)C(c3ccc(OC)cc3)=[N+]3C2=C(c2ccc(OC)cc2)c2c(-c4ccc(OC)cc4)c(-c4ccc(OC)cc4)c(-c4ccc(OC)cc4)n2[B-]3(F)F)cc1
absorption maximum (in C1CCOC1): 597 nm

Structure (SMILES): O=c1cc[nH]c(=O)[nH]1
absorption maximum (in CC#N): 256 nm

Structure (SMILES): c1ccc(-c2nc(-c3ccccc3)nc(-c3ccc(N4c5ccccc5C5(c6ccccc64)c4ccccc4C4(c6ccccc6Sc6ccccc64)c4ccccc45)cc3)n2)cc1
absorption maximum (in Cc1ccccc1): 394.63 nm

Structure (SMILES): COc1cccc(OC)c1C1=C2C(C)=CC(C)=[N+]2[B-](F)(F)n2c(C)cc(C)c21
absorption maximum (in C1CCOC1): 506 nm
absorption maximum (in CC#N): 500 nm
absorption maximum (in CC(=O)C(C)(C)C): 505 nm
absorption maximum (in CC(C)=O): 503 nm
absorption maximum (in CCCCCC): 507 nm
absorption maximum (in CCOC(C)=O): 504 nm
absorption maximum (in CO): 503 nm

Structure (SMILES): F[B-]1(F)OC(c2ccc(C(F)(F)F)cc2)=Cc2cc(Cl)nc[n+]21
absorption maximum (in C1CCOC1): 371 nm
absorption maximum (in CC#N): 368 nm
absorption maximum (in CCCCCC): 370 nm
absorption maximum (in Cc1ccccc1): 374 nm
absorption maximum (in ClC(Cl)Cl): 372 nm
absorption maximum (in ClCCl): 372 nm

Structure (SMILES): C[Si](C)(C)c1sc([Si](C)(C)C)c2c1sc1c2sc2sc3sc4c(sc5c([Si](C)(C)C)sc([Si](C)(C)C)c54)c3c21
absorption maximum (in ClC(Cl)Cl): 332 nm

Structure (SMILES): CCCCCCCCCCCCC1(CCCCCCCCCCCC)c2cc(-c3ccc(C=C4C(=O)c5ccccc5C4=O)cc3)ccc2-c2ccc(-c3ccc(C=C4C(=O)c5ccccc5C4=O)cc3)cc21
absorption maximum (in C1CCOC1): 433 nm
absorption maximum (in CC(C)=O): 429 nm
absorption maximum (in CCCCCC): 419 nm
absorption maximum (in CS(C)=O): 437 nm
absorption maximum (in Cc1ccccc1): 429 nm
absorption maximum (in ClC(Cl)Cl): 438 nm

Structure (SMILES): C1=Cc2nc1c(-c1ccccc1)c1ccc([nH]1)c(-c1ccccc1)c1cc(c(-c3ccccc3)c3ccc([nH]3)c2-c2ccccc2)N=C1
absorption maximum (in ClCCl): 726 nm

Structure (SMILES): O=C(O)CCCCCn1c2ccc(Br)cc2c(=O)c2cc3c(cc21)c(=O)c1cc(Br)ccc1n3CCCCCC(=O)O
absorption maximum (in CO): 533 nm

Structure (SMILES): CCCCC(CC)Cn1c2cc(C#N)ccc2c2ccc(C#Cc3cc(C#Cc4ccc5c6ccc(C#N)cc6n(CC(CC)CCCC)c5c4)c4ccc5c(C#Cc6ccc7c8ccc(C#N)cc8n(CC(CC)CCCC)c7c6)cc(C#Cc6ccc7c8ccc(C#N)cc8n(CC(CC)CCCC)c7c6)c6ccc3c4c65)cc21 (configuration not stated)
absorption maximum (in ClCCl): 467 nm

Structure (SMILES): N#Cc1cc(/C=C/c2ccc(N(c3ccccc3)c3ccccc3)cc2)ccc1/C=C/c1ccc(/C=C/c2ccc(N(c3ccccc3)c3ccccc3)cc2)cc1C#N
absorption maximum (in ClCCl): 447 nm

Structure (SMILES): C1=Cc2ccccc2C(=Cc2ccc(-c3cc(-c4ccc(C=C5c6ccccc6C=Cc6ccccc65)cc4)c(-c4ccc(C=C5c6ccccc6C=Cc6ccccc65)cc4)cc3-c3ccc(C=C4c5ccccc5C=Cc5ccccc54)cc3)cc2)c2ccccc21
absorption maximum (in C1CCOC1): 324 nm

Structure (SMILES): CCOC(=O)C1=CNC=C(C(=O)OCC)C1c1ccccc1
absorption maximum (in C1CCOC1): 355 nm
absorption maximum (in CO): 355 nm

Structure (SMILES): C(#Cc1ccncc1)C(C#Cc1ccncc1)=Cc1ccc(C=C(C#Cc2ccncc2)C#Cc2ccncc2)cc1
absorption maximum (in ClC(Cl)Cl): 420 nm

Structure (SMILES): O=C1CCCC2=C1CC1=C(CCCC1=O)N2NC(=O)c1ccccc1
absorption maximum (in C1CCOC1): 366 nm
absorption maximum (in CC#N): 368 nm
absorption maximum (in CC(C)=O): 366 nm
absorption maximum (in CCCCCO): 376 nm
absorption maximum (in CO): 374 nm
absorption maximum (in ClC(Cl)Cl): 370 nm
absorption maximum (in ClCCl): 364 nm

Structure (SMILES): O=c1c2ccccc2n2c3ccccc3c(=O)c3cccc1c32
absorption maximum (in Cc1ccccc1): 432.96 nm

Structure (SMILES): O=[N+]([O-])c1ccc(/C2=C3N=C(C(c4ccccc4)=C/3c3ccccc3)/C(c3ccc([N+](=O)[O-])cc3)=c3\[nH]/c(c(-c4ccccc4)c3-c3ccccc3)=C(/c3ccc([N+](=O)[O-])cc3)C3=N/C(=C(/c4ccc([N+](=O)[O-])cc4)c4[nH]c2c(-c2ccccc2)c4-c2ccccc2)C(c2ccccc2)=C3c2ccccc2)cc1
absorption maximum (in ClCCl): 711 nm

Structure (SMILES): COc1cccc2cc(-c3cc4cccc(OC)c4oc3=O)oc12
absorption maximum (in CC#N): 352 nm
absorption maximum (in CCOC(C)=O): 351 nm
absorption maximum (in CS(C)=O): 359 nm
absorption maximum (in Cc1ccccc1): 358 nm
absorption maximum (in O): 363 nm

Structure (SMILES): Cc1cc(C)c(B(c2ccccc2N2c3ccccc3Oc3ccccc32)c2c(C)cc(C)cc2C)c(C)c1
absorption maximum (in Cc1ccccc1): 445 nm

Structure (SMILES): CCCCn1c(-c2ccc(-c3nnc(-c4ccc(-c5nc6c7ccccc7c7ccccc7c6n5CCCC)cc4)o3)cc2)nc2c3ccccc3c3ccccc3c21
absorption maximum (in ClCCl): 366 nm

Structure (SMILES): Cc1cc(-c2nc(-c3ccccc3)nc(-c3ccccc3)n2)ccc1-c1ccc2c(c1)C1(c3ccccc3-c3ccccc31)c1ccccc1N2c1ccccc1
absorption maximum (in c1cc(-c2cccc(-n3c4ccccc4c4ccccc43)c2)cc(-n2c3ccccc3c3ccccc32)c1): 371.92 nm

Structure (SMILES): Cc1csc2[n+]1[B-](F)(F)OC(c1ccc(N(C)C)cc1)=N2
absorption maximum (in C1CCOC1): 405 nm
absorption maximum (in CC#N): 403 nm
absorption maximum (in Cc1ccccc1): 407 nm
absorption maximum (in ClCCl): 406 nm

Structure (SMILES): C/N=N/C
absorption maximum (in CCO): 340 nm

Structure (SMILES): CCCCCCCCCCCCN1C(=O)c2ccc3c4ccc5c6c(ccc(c7ccc(c2c37)C1=O)c64)C(=O)N(CCCCCCCCCCCC)C5=O
absorption maximum (in CN(C)C=O): 523 nm

Now from value to compound:

absorption maximum (in CCOC(C)=O): 384 nm
Structure (SMILES): c1cc2ccc3cc4[nH]ccc4c4ccc(c1)c2c34

absorption maximum (in CS(C)=O): 347 nm
Structure (SMILES): Clc1ccccc1-c1nc2sc3ccccc3c2s1

absorption maximum (in ClC(Cl)Cl): 487 nm
Structure (SMILES): Cc1cccc(C)c1-c1cc2c(C)c3c4cc5nc6ccc7c8c(C)c9cc(-c%10c(C)cccc%10C)c(-c%10c(C)cccc%10C)cc9c(C)c8c7c6nc5cc4c3c(C)c2cc1-c1c(C)cccc1C

absorption maximum (in C1CCCCC1): 430 nm
absorption maximum (in C1CCOC1): 431 nm
absorption maximum (in CC#N): 429 nm
absorption maximum (in ClC(Cl)Cl): 431 nm
absorption maximum (in c1ccccc1): 433 nm
Structure (SMILES): Cc1cc(C)c(B(c2c(C)cc(C)cc2C)c2cc3cc(N(C)C)c4ccccc4c3c3c2ccc2ccccc23)c(C)c1

absorption maximum (in CC#N): 708 nm
absorption maximum (in CCO): 700 nm
absorption maximum (in CO): 700 nm
absorption maximum (in ClC(Cl)Cl): 716 nm
Structure (SMILES): CCN(CC)c1ccc2c(c1)OC1=C(/C=C/C3=[N+](C)c4ccccc4C3(C)C)CCCC1=C2c1ccccc1C(=O)O

absorption maximum (in CCO): 386.1 nm
Structure (SMILES): Cc1cc(C)c2cc3cc(C)ncc3cc2c1

absorption maximum (in ClCCl): 324 nm
Structure (SMILES): COC(=O)c1c(-c2cc3ccccc3oc2=O)nn(-c2cccc(C)c2)c1C(=O)OC

absorption maximum (in ClCCl): 440 nm
Structure (SMILES): c1ccc(C2=Nc3cccc4[n+]3[B-](c3ccccc3)(N2)NC(c2ccccc2)=N4)cc1

absorption maximum (in ClCCl): 410 nm
Structure (SMILES): CCN(CC)c1ccc2cc(-c3nc4c5cccc6ccc7cccc(c7c65)c4n3-c3ccc(C(C)(C)C)cc3)c(=O)oc2c1

absorption maximum (in ClCCl): 420 nm
Structure (SMILES): C(=C\c1cnccn1)/c1ccc(N(c2ccccc2)c2ccc(/C=C/c3cnccn3)cc2)cc1

absorption maximum (in ClC(Cl)Cl): 428 nm
Structure (SMILES): CCCCCCN1C(=O)c2cccc3c(-c4ccc(-c5ccc(-c6ccc7c8c(cccc68)C(=O)N(CCCCCC)C7=O)s5)s4)ccc(c23)C1=O

absorption maximum (in C1CCOC1): 350 nm
Structure (SMILES): CCOC(=O)c1ccc(C2=C(c3ccccc3)c3oc4ccccc4[n+]3[B-](F)(F)O2)cc1

absorption maximum (in ClCCl): 360 nm
absorption maximum (in O): 360 nm
Structure (SMILES): Oc1c(-c2ccco2)cccc1-c1nc2ccccc2s1

absorption maximum (in ClCCl): 334 nm
Structure (SMILES): CC(C)(C)NC(=O)c1cccc2ccc3c4cc(F)ccc4c4ccc(F)cc4c3c12

absorption maximum (in C1CCCCC1): 328 nm
Structure (SMILES): CCCC1(CCC)c2cc(-c3ccc(C(C)(C)CC)cc3)ccc2-c2ccc(-c3ccc(C(C)(C)CC)cc3)cc21

absorption maximum (in CO): 339 nm
Structure (SMILES): N#Cc1ccc(-c2nc(-c3ccccc3)c(-c3ccccc3)[nH]2)cc1

absorption maximum (in CCO): 564 nm
absorption maximum (in ClCCl): 566 nm
Structure (SMILES): COc1ccccc1-c1c2ccc(=[N+]3CCCCC3)cc-2oc2cc(N3CCCCC3)ccc12

absorption maximum (in ClCCl): 345 nm
Structure (SMILES): C(=C\c1ccc(-c2ccncc2)cc1)/c1ccc(-c2ccncc2)cc1

absorption maximum (in ClC(Cl)Cl): 352 nm
Structure (SMILES): COc1cc(OC)c2cc(-c3cccc(-c4cc5c(OC)cc(OC)cc5oc4=O)c3)c(=O)oc2c1

absorption maximum (in C1CCOC1): 345 nm
Structure (SMILES): N#Cc1c(N2CCCCC2)cc(-c2ccc(-c3ccccc3)s2)c2c1CCc1ccccc1-2

absorption maximum (in ClC(Cl)Cl): 398 nm
Structure (SMILES): CCc1ccc(-n2c3ccccc3c3cc4c(cc32)c2ccccc2n4-c2ccc(CC)s2)s1

absorption maximum (in C1CCCCC1): 340 nm
absorption maximum (in CC#N): 343 nm
absorption maximum (in CO): 299 nm
absorption maximum (in ClCCl): 345 nm
absorption maximum (in O): 299 nm
Structure (SMILES): Oc1ccccc1-c1nc(-c2ccccc2)c2ccccn12

absorption maximum (in CCCCCC): 338 nm
absorption maximum (in CO): 338 nm
absorption maximum (in ClCCl): 341 nm
Structure (SMILES): CC(C)(C)c1ccc2ccc3cccc4ccc1c2c34

absorption maximum (in O): 635 nm
Structure (SMILES): Cc1ccccc1C1=C2C=CC(=[N+](C)C)C=[C]2[Ge]([CH3])([CH3])[c]2cc(N(C)C)ccc21

absorption maximum (in ClCCl): 309 nm
Structure (SMILES): COc1ccc(N2c3c(sc4ccccc34)Sc3sc4ccccc4c32)cc1

absorption maximum (in C1COCCO1): 443 nm
absorption maximum (in CC#N): 444 nm
absorption maximum (in CCCCOCCCC): 442 nm
absorption maximum (in CCOC(C)=O): 441 nm
Structure (SMILES): COc1nc(Nc2ccc3c4cccc5cccc(c6cccc2c63)c54)nc(OC)n1

absorption maximum (in CCO): 401 nm
absorption maximum (in ClC(Cl)Cl): 403 nm
Structure (SMILES): COc1ccc2c(-c3nc(-c4cccc(C)c4)no3)cc(=O)oc2c1

absorption maximum (in ClCCl): 284 nm
Structure (SMILES): c1ccc(N(c2ccccc2)c2ccc(-c3ccc(-c4cc(-c5ccccn5)nc(-c5ccccn5)c4)cc3)cc2)cc1

absorption maximum (in CC#N): 406 nm
Structure (SMILES): Cc1cc2c(ccc3c(C)[n+](C)c(C)cc32)c(C)[n+]1C

absorption maximum (in CC1CCCCC1): 390 nm
absorption maximum (in CC#N): 390 nm
Structure (SMILES): C(=C\c1c2ccccc2cc2ccccc12)/c1ccc2ccccc2n1

absorption maximum (in ClCCl): 698 nm
Structure (SMILES): COc1ccc2cc(C3=[N+]4C(=Nc5c(-c6ccc7ccccc7c6)c(Br)c(-c6ccc7cc(OC)ccc7c6)n5[B-]4(F)F)C(c4ccc5ccccc5c4)=C3Br)ccc2c1

absorption maximum (in CCCCCC): 609 nm
absorption maximum (in CCCCCCCCO): 613 nm
absorption maximum (in CCOC(C)=O): 607 nm
absorption maximum (in CN(C)C=O): 612 nm
Structure (SMILES): CC1=CC(C)=[N+]2C1=Cc1c3ccccc3c(C#Cc3ccc(F)cc3)n1[B-]2(F)F

absorption maximum (in CC#N): 333 nm
Structure (SMILES): C=Cc1cc2ccc(OC)cc2oc1=O

absorption maximum (in ClCCl): 355 nm
Structure (SMILES): c1ccc(-n2c3ccccc3c3cc(-c4cccc(-n5c6ccccc6c6c7sc8ccccc8c7ccc65)c4)ccc32)cc1

absorption maximum (in CC#N): 299 nm
Structure (SMILES): CN(C)c1ccc(-n2c(-c3ccncc3)nc3ccccc32)cc1
